Data reported in PubChem BioAssay (NCI).
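48-hour exposure; five concentrations; linearly interpolated endpoints. TGI: total growth inhibition.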 *1 amine or outer side, *2 acyl side, *3 side chain or, on linkers, in order; H or OH if unused. Where a SMILES comes first, the peptide text is derived from it. [ ]: non-standard residue; d: D form. The star is where a group is joined. X31 = CC(=O)N(C)SCC(N[*:1])C(=O)[*:2]; Cbz = O=C(OCc1ccccc1)*; Bn = c1ccc(C*)cc1

Experiments:
Test in all cases: DTP human tumour cell line panel, 48 h
[1] = system: NCI-H460 lung
[2] = system: OVCAR-3 ovarian
[3] = system: EKVX NSCLC
[4] = system: NCI-H522 lung
[5] = system: MALME-3M melanoma
[6] = system: KM12 colon
[7] = system: OVCAR-8 ovarian
[8] = system: A549 NSCLC
[9] = system: UO-31 renal
[10] = system: PC-3 prostate

Structure (SMILES): COc1cc(C2C(Cl)C(=O)N2NC(=O)c2ccc(N)cc2)cc(Br)c1O (configuration not stated)
- TGI [1]: 31.4 µM
- TGI [2]: 20.8 µM
- TGI [3]: 31 µM
- TGI [4]: 3.4 µM
- TGI [5]: 27.5 µM
- TGI [6]: 30.7 µM
- TGI [7]: > 100 µM
- TGI [8]: 42.8 µM
- TGI [9]: 35.6 µM

Structure (SMILES): O=c1c2cc(Cl)cc(Cl)c2oc2nc3n(c(=O)c12)CCCS3
- TGI [1]: > 100 µM
- TGI [2]: > 100 µM
- TGI [10]: > 100 µM
- TGI [3]: > 100 µM
- TGI [4]: 81.6 µM
- TGI [5]: > 100 µM
- TGI [6]: > 100 µM
- TGI [8]: > 100 µM
- TGI [9]: 40.4 µM

Structure (SMILES): Fc1ccc(-c2sc(-c3cccs3)cc2Cc2cccs2)cc1
- TGI [1]: > 100 µM
- TGI [2]: > 100 µM
- TGI [3]: > 100 µM
- TGI [4]: > 100 µM
- TGI [5]: > 100 µM
- TGI [6]: > 100 µM
- TGI [7]: > 100 µM
- TGI [8]: > 100 µM
- TGI [9]: > 100 µM

Structure (SMILES): Nc1cc(=O)n(-c2ccccc2)c(=S)n1-c1ccccc1
- TGI [1]: > 100 µM
- TGI [2]: > 100 µM
- TGI [3]: > 100 µM
- TGI [4]: > 100 µM
- TGI [5]: > 100 µM
- TGI [6]: > 100 µM
- TGI [7]: > 100 µM
- TGI [8]: > 100 µM
- TGI [9]: > 100 µM

Structure (SMILES): O=C(Nc1cccc2c1[nH]c1c(-c3ccccc3)nccc12)c1ccccc1[N+](=O)[O-]
- TGI [1]: 78.1 µM
- TGI [3]: > 100 µM
- TGI [5]: > 100 µM
- TGI [6]: > 100 µM
- TGI [7]: > 100 µM
- TGI [8]: > 100 µM

Structure (SMILES): O=C1CC(=O)NC(=NNS(=O)(=O)c2ccccc2)N1
- TGI [1]: > 100 µM
- TGI [2]: > 100 µM
- TGI [10]: > 100 µM
- TGI [4]: > 100 µM
- TGI [5]: > 100 µM
- TGI [6]: > 100 µM
- TGI [7]: > 100 µM
- TGI [8]: > 100 µM
- TGI [9]: > 100 µM

Structure (SMILES): COC1(O)c2cccc(Cl)c2C(=O)N1C1(C(N)=O)CCCCC1 (configuration not stated)
- TGI [1]: > 100 µM
- TGI [2]: > 100 µM
- TGI [3]: > 100 µM
- TGI [4]: > 100 µM
- TGI [5]: > 100 µM
- TGI [6]: > 100 µM
- TGI [7]: > 100 µM
- TGI [8]: > 100 µM
- TGI [9]: > 100 µM

Structure (SMILES): CSc1ncc2c(n1)sc1c(=O)n(-c3ccccc3)cnc12
- TGI [1]: > 100 µM
- TGI [2]: > 100 µM
- TGI [10]: > 100 µM
- TGI [4]: > 100 µM
- TGI [5]: > 100 µM
- TGI [6]: > 100 µM
- TGI [7]: > 100 µM
- TGI [8]: > 100 µM
- TGI [9]: > 100 µM

Structure (SMILES): COc1ccc(C(=O)/C=C/c2ccc(OCCSCCCCCCCCCCSCCOc3ccc(/C=C/C(=O)c4ccc(OC)c(OC)c4)cc3)cc2)cc1OC
- TGI [1]: > 100 µM
- TGI [10]: > 100 µM
- TGI [3]: > 100 µM
- TGI [4]: > 100 µM
- TGI [5]: > 100 µM
- TGI [6]: > 100 µM
- TGI [7]: > 100 µM
- TGI [8]: > 100 µM

Structure (SMILES): FC(F)(Sc1ncc[nH]1)c1nc2ccccc2o1
- TGI [1]: > 100 µM
- TGI [2]: > 100 µM
- TGI [10]: > 100 µM
- TGI [4]: > 100 µM
- TGI [5]: > 100 µM
- TGI [6]: > 100 µM
- TGI [7]: > 100 µM
- TGI [8]: > 100 µM
- TGI [9]: > 100 µM

Structure (SMILES): CC1C(OC2O[C@@H]3O[C@@]4(C)CC[C@H]5[C@H](C)CC[C@@H](C2C)[C@@]35O4)O[C@@H]2O[C@@]3(C)CC[C@H]4[C@H](C)CC[C@@H]1[C@@]24O3 (some centres not stated)
- TGI [1]: > 50 µM
- TGI [2]: > 50 µM
- TGI [10]: > 50 µM
- TGI [3]: > 50 µM
- TGI [4]: > 50 µM
- TGI [5]: > 50 µM
- TGI [6]: > 50 µM
- TGI [7]: > 50 µM
- TGI [8]: > 50 µM

Structure (SMILES): Clc1ccc(-c2c(C3=NCCCN3)nnn2-c2ccccc2)cc1
- TGI [1]: > 100 µM
- TGI [2]: > 100 µM
- TGI [3]: > 100 µM
- TGI [4]: > 100 µM
- TGI [5]: > 100 µM
- TGI [6]: > 100 µM
- TGI [7]: > 100 µM
- TGI [8]: > 100 µM
- TGI [9]: > 100 µM

Structure (SMILES): COC(=O)C1(C(=O)OC)N=C(C)OC1/C=C/c1ccccc1 (configuration not stated)
- TGI [1]: > 100 µM
- TGI [2]: > 100 µM
- TGI [10]: > 100 µM
- TGI [3]: > 100 µM
- TGI [6]: > 100 µM
- TGI [7]: > 100 µM
- TGI [8]: > 100 µM
- TGI [9]: > 100 µM

Structure (SMILES): Cc1nnc(N)nc1/C=C/c1c(O)ccc2ccccc12
- TGI [1]: 71.2 µM
- TGI [10]: 64.1 µM
- TGI [3]: 36 µM
- TGI [6]: > 100 µM
- TGI [7]: > 100 µM
- TGI [8]: > 100 µM
- TGI [9]: 84.6 µM

Structure (SMILES): O=C(O)C12CCCCC1CCCC2 (configuration not stated)
- TGI [1]: > 100 µM
- TGI [2]: > 100 µM
- TGI [3]: > 100 µM
- TGI [4]: > 100 µM
- TGI [6]: > 100 µM
- TGI [7]: > 100 µM
- TGI [8]: > 100 µM

Structure (SMILES): Ic1cc2c(cc1C1SCCCS1)OCO2
- TGI [1]: > 100 µM
- TGI [2]: > 100 µM
- TGI [3]: > 100 µM
- TGI [4]: > 100 µM
- TGI [5]: > 100 µM
- TGI [6]: > 100 µM
- TGI [7]: > 100 µM
- TGI [8]: > 100 µM
- TGI [9]: > 100 µM

Structure (SMILES): CSC12c3cc(C)n(-c4ccccc4)c3CC(C)(C)CN1C(=O)C2Oc1ccccc1 (configuration not stated)
- TGI [1]: > 100 µM
- TGI [2]: > 100 µM
- TGI [10]: > 100 µM
- TGI [3]: > 100 µM
- TGI [6]: > 100 µM
- TGI [7]: > 100 µM
- TGI [8]: 86.4 µM
- TGI [9]: > 100 µM

Structure (SMILES): Cc1cc(S(=O)(=O)/N=C(/[N-]S(=O)(=O)c2ccc(Cl)cc2)[n+]2ccc(N(C)C)cc2)c(SCC(=O)O)cc1Cl
- TGI [1]: > 100 µM
- TGI [2]: > 100 µM
- TGI [10]: > 100 µM
- TGI [3]: > 100 µM
- TGI [5]: > 100 µM
- TGI [6]: > 100 µM
- TGI [7]: > 100 µM
- TGI [8]: > 100 µM
- TGI [9]: > 100 µM

Structure (SMILES): CN1CN(c2ccccc2)C2(CCN(CCC3COc4ccccc4O3)CC2)C1=O (configuration not stated)
- TGI [2]: 48.7 µM
- TGI [10]: > 100 µM
- TGI [3]: 51.4 µM
- TGI [4]: 33.4 µM
- TGI [5]: 38.5 µM
- TGI [6]: 66.7 µM
- TGI [7]: > 100 µM
- TGI [8]: > 100 µM
- TGI [9]: 38.2 µM

Structure (SMILES): CC(=O)N(C)SCC(NC(=O)C(Cc1ccccc1)NC(=O)OCc1ccccc1)C(=O)NC(Cc1ccccc1)C(=O)NC(Cc1c[nH]c2ccccc12)C(=O)NC(CCCCNC(=O)OCc1ccccc1)C(=O)NC(C(=O)NC(CSN(C)C(C)=O)C(=O)NC(C(N)=O)C(C)OCc1ccccc1)C(C)OCc1ccccc1 (configuration not stated) (Cbz-F[X31]FWK(Cbz)T(Bn)[X31]T(Bn)-NH2; configuration not given here)
- TGI [1]: > 100 µM
- TGI [2]: > 100 µM
- TGI [10]: > 100 µM
- TGI [3]: > 100 µM
- TGI [5]: > 100 µM
- TGI [6]: > 100 µM
- TGI [7]: > 100 µM
- TGI [8]: > 100 µM
- TGI [9]: > 100 µM

Structure (SMILES): COC(=O)[C@H](CC(C)C)Nc1c(O)c2c(c(O)c1Cl)C(=O)C=CC2=O
- TGI [1]: > 10 µM
- TGI [2]: 6 µM
- TGI [10]: > 10 µM
- TGI [3]: > 10 µM
- TGI [4]: > 10 µM
- TGI [5]: > 10 µM
- TGI [6]: > 10 µM
- TGI [7]: > 10 µM
- TGI [8]: > 10 µM

Structure (SMILES): CCOC1Oc2ccccc2-c2nc(SC)ncc21 (configuration not stated)
- TGI [1]: > 100 µM
- TGI [2]: > 100 µM
- TGI [10]: > 100 µM
- TGI [3]: > 100 µM
- TGI [4]: > 100 µM
- TGI [6]: > 100 µM
- TGI [7]: > 100 µM
- TGI [8]: > 100 µM
- TGI [9]: > 100 µM

Structure (SMILES): CC(=O)NC(Cc1ccsc1)C(=O)O (configuration not stated)
- TGI [1]: > 100 µM
- TGI [2]: > 100 µM
- TGI [3]: > 100 µM
- TGI [4]: > 100 µM
- TGI [5]: > 100 µM
- TGI [6]: > 100 µM
- TGI [7]: > 100 µM
- TGI [8]: > 100 µM
- TGI [9]: > 100 µM
